Measurements reported in the NIST ThermoML archive (doi:10.1021/je3009599).

Conditions: Liquid

CCCC(=O)OCC [ethyl butanoate]
Conditions	vapor or sublimation pressure [kPa]
348.97 K	22.5
351.83 K	25
354.39 K	27.5
356.76 K	30.03
359 K	32.51
361.08 K	35.02
363.04 K	37.52
364.86 K	40.04
366.66 K	42.51
368.24 K	45.03
369.87 K	47.51
371.44 K	50.01
372.86 K	52.51
374.31 K	55.03
375.67 K	57.52
376.95 K	60
379.48 K	65.03
380.68 K	67.53
381.82 K	70
382.96 K	72.52
384.07 K	75.01
385.13 K	77.51
386.19 K	79.99
387.22 K	82.52
388.21 K	85.02
389.17 K	87.54
390.12 K	89.98
391.06 K	92.53
391.95 K	94.92
392.83 K	97.45
393.71 K	100.01
394.13 K	101.31

CCCC(C)O (stereo not given) [pentan-2-ol]
Conditions	vapor or sublimation pressure [kPa]
354.47 K	22.55
356.6 K	25.05
358.86 K	27.47
360.81 K	30.03
362.76 K	32.55
364.38 K	35.08
366 K	37.56
367.49 K	40.03
369.03 K	42.51
370.52 K	45.07
371.77 K	47.54
373.05 K	50.02
374.33 K	52.58
375.51 K	55.03
376.68 K	57.48
377.81 K	60.03
378.95 K	62.45
379.97 K	65.05
381.01 K	67.58
381.96 K	70.03
382.9 K	72.56
383.88 K	75.05
384.79 K	77.59
385.64 K	80.03
386.56 K	82.58
387.35 K	85.01
388.19 K	87.55
389 K	90.09
389.76 K	92.52
390.55 K	95.02
391.31 K	97.55
392.07 K	100.03
392.26 K	101.38
